Data taken from patent US7863014B2 (priority 2001, dated 2011).

Legend:
Ppnk [1] = biological target: T1, Ppnk (Mycobacterium tuberculosis, UniProt P9WHV7); test: Effect of NADP and ADP on NADP-producing activity of purified Ppnk; type: biochemical, M. tuberculosis; settings: various levels of NADP or ADP
Procedure: The NADP-producing activity was assayed in the presence of various levels of NADP (solid circles) or ADP (open circles).
A reaction for producing NADP was performed in a reaction mixture solution (4.0 ml) at 37° C. with shaking. […] After the reaction for 1 hour, 10 μl of the reaction mixture was collected and enzymatically assayed for NADP using isocitrate dehydrogenase (Sigma-Aldrich Japan, Tokyo, Japan). The activity was expressed in μmol/g cells/hour.

Ppnk [2] = biological target: T1, Ppnk

T1 sequence (P9WHV7 whole entry, looked up): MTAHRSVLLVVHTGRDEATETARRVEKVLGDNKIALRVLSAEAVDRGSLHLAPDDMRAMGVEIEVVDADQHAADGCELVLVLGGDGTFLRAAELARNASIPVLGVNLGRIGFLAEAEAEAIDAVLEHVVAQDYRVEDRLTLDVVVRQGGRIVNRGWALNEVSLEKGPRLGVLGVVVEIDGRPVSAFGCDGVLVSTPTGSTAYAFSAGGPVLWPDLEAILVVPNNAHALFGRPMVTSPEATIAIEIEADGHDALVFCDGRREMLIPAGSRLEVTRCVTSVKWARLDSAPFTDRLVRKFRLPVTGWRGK

Structure (SMILES)	inhibition of polyphosphate-dependent NAD kinase activity of Ppnk (Ppnk [1])	Mg2+ concentration giving highest activity (Ppnk [2]) [mM]	effectiveness among metal ions (Mg2+, Mn2+, Ca2+) (Ppnk [2])
Nc1ncnc2c1ncn2[C@@H]1O[C@H](COP(=O)(O)OP(=O)(O)O)[C@@H](O)[C@H]1O [ADP]	not inhibited	–	–
[Cl-].[Cl-].[Mg+2] [MgCl2]	–	100	most effective
